Data taken from patent US20250115633A1, “PHOTODYNAMIC THERAPY AND DIAGNOSIS” (RMW CHO Group Limited, priority 2021, published 2025).
Structures can show the parent of a compound that is named as a salt. Where two headings read alike, the source gives them in different places.

Columns and labels:
[1] = system: SKOV3 ovarian cancer cells; test: Phototoxicity in SKOV3 cells after 660 nm light activation (AlamarBlue viability); type: cell-based, Human; conditions: read-out: Phototoxicity μM (IC90)
Protocol: (§1) Samples were stored at 4° C. protected from light.
(§2) All data are shown as mean±SD (where appropriate).
Media was then replaced with fresh media containing AlamarBlue, and % viable cells remaining assessed as above. Controls included cells treated with chlorin e4 analogues but not activated by laser light; cells without chlorin e4 analogue treatment but with laser light; and untreated controls. All measurements were made in quadruplicate.

[2] = system: SKOV3 ovarian cancer cells; test: Inherent cytotoxicity (dark toxicity) in SKOV3 cells (AlamarBlue viability); type: cell-based, Human
Protocol: as §1, §2
Untreated cells were used as a control. […] All measurements were made in quadruplicate.

[3] = Homo sapiens, SK-OV-3, light or radiation study
[4] = SKOV3, 24 hours incubation, no light activation
[5] = SKOV3, 24 hours uptake, 660 nm, 50 mW/cm^2 for 5 mins (total 15 J/cm^2), * phototoxicity measured by LED

Row | Compound | IC90 [1, 3] [µM] | Dark toxicity μM (IC10) [2, 4] [µM] | also measured
1 | CCC1=C(C)c2cc3[nH]c(cc4nc(c(C)c5[nH]c(cc1n2)c(C)c5C(=O)OC)[C@@H](CCC(=O)OC)[C@@H]4C)c(C)c3COC(=O)NCCC[P+](c1ccccc1)(c1ccccc1)c1ccccc1 [Compound 5, chlorin e4 dimethyl ester 13-(N-(3-triphenylphosphoniumpropyl)bromide)carbamate] | 0.0029 | 3.046 | –
2 | CCC1=C(C)c2cc3[nH]c(cc4nc(c(C)c5[nH]c(cc1n2)c(C)c5C(=O)OC)[C@@H](CCC(=O)OC)[C@@H]4C)c(C)c3COC(=O)NCC[P+](c1ccccc1)(c1ccccc1)c1ccccc1 [Compound 6, chlorin e4 dimethyl ester 13-(N-(2-triphenylphosphoniumethyl)bromide)carbamate] | – | 2.281 | IC90 ([1]; Homo sapiens, SK-OV-3, light or radiation study, SKOV3, 24 hours uptake, 660 nm, 50 mW/cm^2 for 5 mins (total 15 J/cm^2), * phototoxicity measured by LED): 0.0018 µM
3 | chlorin e4 dimethyl ester 13-(6-(triphenylphosphonium bromide)hexyl)carbamate [Compound 3] | – | 0.838 | IC90 [1, 5]: 0.0041 µM
4 | C=Cc1c(C)c2cc3nc(c(CC(=O)N[C@@H](CC(=O)O)C(=O)O)c4[nH]c(cc5nc(cc1[nH]2)C(C)=C5CC)c(C)c4C(=O)O)[C@@H](CCC(=O)O)[C@@H]3C [Talaporfin sodium, reference compound] | – | 11.10 | –
5 | C=Cc1c(C)c2cc3nc(c(C)c4[nH]c(cc5nc(cc1[nH]2)C(C)=C5CC)c(C)c4C(=O)O)[C@@H](CCC(=O)O)[C@@H]3C [Chlorin e4 disodium, Chlorin e4 Disodium Salt, reference compound] | – | – | IC90 ([1]; SKOV3, 24 hours uptake, 660 nm, 50 mW/cm^2 for 5 mins (total 15 J/cm^2), values not marked * (laser)): 21.3 µM; Dark toxicity μM (IC10) [2]: 40.23 µM
6 | CCC1=C(C)c2cc3[nH]c(cc4nc(c(C)c5[nH]c(cc1n2)c(C)c5C(=O)OC)[C@@H](CCC(=O)OC)[C@@H]4C)c(C)c3COC(=O)NCCCOCCC[P+](c1ccccc1)(c1ccccc1)c1ccccc1 [Compound 4, chlorin e4 dimethyl ester 13-(N-(3-(3-triphenylphosphoniumpropoxy)propyl)chloride)carbamate] | 0.0024 | 3.881 | –
7 | CCC1=C(C)c2cc3[nH]c(cc4nc(c(C)c5[nH]c(cc1n2)c(C)c5C(=O)OC)[C@@H](CCC(=O)OC)[C@@H]4C)c(C)c3C(C)OCCCS[C@@H]1O[C@H](CO)[C@@H](O)[C@H](O)[C@H]1O (stereo partly drawn) [Compound 1, methyl (7S,8S)-18-ethyl-7-(3-methoxy-3-oxopropyl)-2,5,8,12,17-pentamethyl-13-(1-(3-(((2S,3R,4S,5S,6R)-3,4,5-trihydroxy-6-(hydroxymethyl)tetrahydro-2H-pyran-2-yl)thio)propoxy)ethyl)-7H,8H-porphyrin-3-carboxylate] | 0.06 | 8.64 | –
8 | chlorin e4 13-hydroxymethyl dimethyl ester | – | – | IC90 [1, 5]: 0.325 µM; Dark toxicity μM (IC10) [2]: 42.830 µM
